# Measured values: ChEMBL document CHEMBL1201862, “PubChem BioAssay data set” (2004)
# Active and inactive are the calls of the source.
# Assays:
# Format in all cases: functional
# [1] = target: T1, Short transient receptor potential channel 4 (Mus musculus, UniProt Q9QUQ5); test: mouse TRPC4 channel inhibitors, dose response, cell-based, HEK293 TRPC4/mu-opioid, Fluo-4 calcium (AID 434942);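 also: potency of inhibitors blocking the TRPC4 calcium response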
# T1 sequence (Q9QUQ5 whole entry): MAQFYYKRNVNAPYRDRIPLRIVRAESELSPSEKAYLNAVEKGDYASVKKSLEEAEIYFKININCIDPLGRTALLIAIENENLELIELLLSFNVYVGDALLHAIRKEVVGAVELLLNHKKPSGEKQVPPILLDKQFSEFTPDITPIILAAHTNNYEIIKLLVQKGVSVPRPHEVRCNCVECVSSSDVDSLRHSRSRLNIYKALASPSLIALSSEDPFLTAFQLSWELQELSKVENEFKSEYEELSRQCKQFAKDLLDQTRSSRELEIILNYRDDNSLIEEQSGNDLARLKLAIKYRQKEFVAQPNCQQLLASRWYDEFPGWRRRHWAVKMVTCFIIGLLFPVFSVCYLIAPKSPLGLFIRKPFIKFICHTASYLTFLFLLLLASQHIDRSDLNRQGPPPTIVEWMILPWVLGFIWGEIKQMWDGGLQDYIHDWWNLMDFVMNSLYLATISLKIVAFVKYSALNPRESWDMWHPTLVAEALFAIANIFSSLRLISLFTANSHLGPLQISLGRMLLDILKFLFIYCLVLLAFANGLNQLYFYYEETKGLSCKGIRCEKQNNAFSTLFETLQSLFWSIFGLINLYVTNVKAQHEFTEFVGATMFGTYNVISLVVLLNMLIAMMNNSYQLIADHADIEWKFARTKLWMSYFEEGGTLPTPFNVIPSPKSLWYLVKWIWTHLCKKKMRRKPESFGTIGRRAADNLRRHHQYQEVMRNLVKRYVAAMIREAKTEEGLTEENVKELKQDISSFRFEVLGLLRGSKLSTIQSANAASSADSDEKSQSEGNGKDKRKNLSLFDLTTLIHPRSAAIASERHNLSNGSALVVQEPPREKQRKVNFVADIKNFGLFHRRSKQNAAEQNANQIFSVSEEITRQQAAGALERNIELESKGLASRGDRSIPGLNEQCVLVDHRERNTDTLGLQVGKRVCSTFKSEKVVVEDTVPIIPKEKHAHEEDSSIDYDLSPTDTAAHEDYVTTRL
# [2] = target: T2, Protein skinhead-1 (Caenorhabditis elegans, UniProt P34707)
# T2 sequence (P34707 whole entry): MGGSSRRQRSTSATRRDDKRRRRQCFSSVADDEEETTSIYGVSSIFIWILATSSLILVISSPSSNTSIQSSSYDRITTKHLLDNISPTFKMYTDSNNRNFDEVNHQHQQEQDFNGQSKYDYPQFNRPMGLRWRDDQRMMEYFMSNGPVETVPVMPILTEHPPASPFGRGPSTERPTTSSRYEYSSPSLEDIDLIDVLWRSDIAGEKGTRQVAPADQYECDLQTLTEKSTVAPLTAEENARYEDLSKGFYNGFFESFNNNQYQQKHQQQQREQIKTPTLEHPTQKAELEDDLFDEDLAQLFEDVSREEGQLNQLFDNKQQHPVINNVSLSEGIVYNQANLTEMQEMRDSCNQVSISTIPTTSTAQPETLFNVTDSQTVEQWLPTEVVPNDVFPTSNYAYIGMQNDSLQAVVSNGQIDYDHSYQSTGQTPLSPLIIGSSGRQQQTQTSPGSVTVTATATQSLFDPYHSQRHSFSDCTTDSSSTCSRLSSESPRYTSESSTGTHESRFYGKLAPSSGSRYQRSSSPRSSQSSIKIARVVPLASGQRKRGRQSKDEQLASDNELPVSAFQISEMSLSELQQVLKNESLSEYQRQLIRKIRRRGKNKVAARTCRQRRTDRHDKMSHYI
# [3] = target: Peroxisome proliferator-activated receptor gamma/Nuclear receptor coactivator 1 (Homo sapiens, UniProt P37231);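 also: agonist potency as compounds enhance coactivator SRC-1 recruitment to PPARgamma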
# Sequence of Peroxisome proliferator-activated receptor gamma/Nuclear receptor coactivator 1 (P37231 whole entry): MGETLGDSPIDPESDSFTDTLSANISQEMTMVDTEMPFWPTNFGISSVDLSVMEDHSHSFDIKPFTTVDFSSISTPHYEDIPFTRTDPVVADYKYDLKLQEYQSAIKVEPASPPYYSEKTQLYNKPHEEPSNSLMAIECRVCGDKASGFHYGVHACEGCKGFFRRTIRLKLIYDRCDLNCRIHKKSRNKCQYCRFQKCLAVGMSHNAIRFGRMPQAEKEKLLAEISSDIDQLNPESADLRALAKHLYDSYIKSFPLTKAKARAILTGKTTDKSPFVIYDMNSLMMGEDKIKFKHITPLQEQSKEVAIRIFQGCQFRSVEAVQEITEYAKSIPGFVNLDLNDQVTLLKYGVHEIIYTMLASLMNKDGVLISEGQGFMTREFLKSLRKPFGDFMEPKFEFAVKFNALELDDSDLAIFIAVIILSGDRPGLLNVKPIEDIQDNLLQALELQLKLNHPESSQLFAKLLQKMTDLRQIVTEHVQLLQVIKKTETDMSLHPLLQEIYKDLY
# Sequence of Peroxisome proliferator-activated receptor gamma/Nuclear receptor coactivator 1 (Q15788 whole entry, further chain): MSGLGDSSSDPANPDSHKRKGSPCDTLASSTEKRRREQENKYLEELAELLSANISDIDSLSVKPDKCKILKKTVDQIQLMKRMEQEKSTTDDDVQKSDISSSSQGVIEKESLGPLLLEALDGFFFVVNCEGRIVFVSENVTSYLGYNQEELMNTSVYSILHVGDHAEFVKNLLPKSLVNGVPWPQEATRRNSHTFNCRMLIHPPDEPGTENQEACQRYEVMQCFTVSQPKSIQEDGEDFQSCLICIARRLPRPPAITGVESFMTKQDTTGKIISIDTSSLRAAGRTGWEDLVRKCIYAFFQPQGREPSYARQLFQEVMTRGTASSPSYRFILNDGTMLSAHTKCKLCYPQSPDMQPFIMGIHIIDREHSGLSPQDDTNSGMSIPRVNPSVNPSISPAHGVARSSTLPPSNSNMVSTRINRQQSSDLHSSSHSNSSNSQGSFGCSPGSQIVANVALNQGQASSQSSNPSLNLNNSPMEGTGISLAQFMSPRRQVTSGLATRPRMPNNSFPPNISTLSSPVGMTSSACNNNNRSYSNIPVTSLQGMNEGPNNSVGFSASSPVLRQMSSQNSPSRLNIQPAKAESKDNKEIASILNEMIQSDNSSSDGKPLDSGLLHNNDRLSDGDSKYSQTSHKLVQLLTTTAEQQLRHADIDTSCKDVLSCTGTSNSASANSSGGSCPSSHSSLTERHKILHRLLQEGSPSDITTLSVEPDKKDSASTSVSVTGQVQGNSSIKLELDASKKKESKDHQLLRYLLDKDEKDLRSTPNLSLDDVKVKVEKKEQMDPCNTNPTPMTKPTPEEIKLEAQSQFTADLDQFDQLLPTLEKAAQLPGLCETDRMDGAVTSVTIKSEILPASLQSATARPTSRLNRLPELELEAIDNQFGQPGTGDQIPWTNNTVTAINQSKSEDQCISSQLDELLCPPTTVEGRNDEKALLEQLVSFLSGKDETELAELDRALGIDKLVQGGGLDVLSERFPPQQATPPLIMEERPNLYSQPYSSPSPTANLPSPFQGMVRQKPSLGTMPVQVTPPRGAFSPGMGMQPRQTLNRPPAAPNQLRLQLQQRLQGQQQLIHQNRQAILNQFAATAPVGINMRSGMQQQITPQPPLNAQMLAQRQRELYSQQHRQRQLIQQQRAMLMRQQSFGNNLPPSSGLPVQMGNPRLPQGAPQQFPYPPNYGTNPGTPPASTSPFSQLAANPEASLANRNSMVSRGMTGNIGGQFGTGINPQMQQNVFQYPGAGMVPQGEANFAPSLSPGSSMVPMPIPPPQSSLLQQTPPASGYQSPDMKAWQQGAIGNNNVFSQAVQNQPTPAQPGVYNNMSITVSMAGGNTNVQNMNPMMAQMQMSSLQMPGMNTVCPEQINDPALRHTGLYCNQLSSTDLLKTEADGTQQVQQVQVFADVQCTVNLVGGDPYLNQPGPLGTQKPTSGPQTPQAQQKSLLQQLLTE
# [4] = target: Peroxisome proliferator-activated receptor gamma/Nuclear receptor coactivator 2 (Homo sapiens, UniProt P37231);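 also: agonist potency for raising coactivator recruitment to the receptor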
# [5] = target: Peroxisome proliferator-activated receptor gamma/Nuclear receptor coactivator 3 (Homo sapiens, UniProt P37231);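 also: agonist potency for raising coactivator recruitment to the receptor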
# Sequence of Peroxisome proliferator-activated receptor gamma/Nuclear receptor coactivator 3 (P37231 whole entry): as the sequence (P37231 whole entry) above
# Sequence of Peroxisome proliferator-activated receptor gamma/Nuclear receptor coactivator 3 (Q9Y6Q9 whole entry, further chain): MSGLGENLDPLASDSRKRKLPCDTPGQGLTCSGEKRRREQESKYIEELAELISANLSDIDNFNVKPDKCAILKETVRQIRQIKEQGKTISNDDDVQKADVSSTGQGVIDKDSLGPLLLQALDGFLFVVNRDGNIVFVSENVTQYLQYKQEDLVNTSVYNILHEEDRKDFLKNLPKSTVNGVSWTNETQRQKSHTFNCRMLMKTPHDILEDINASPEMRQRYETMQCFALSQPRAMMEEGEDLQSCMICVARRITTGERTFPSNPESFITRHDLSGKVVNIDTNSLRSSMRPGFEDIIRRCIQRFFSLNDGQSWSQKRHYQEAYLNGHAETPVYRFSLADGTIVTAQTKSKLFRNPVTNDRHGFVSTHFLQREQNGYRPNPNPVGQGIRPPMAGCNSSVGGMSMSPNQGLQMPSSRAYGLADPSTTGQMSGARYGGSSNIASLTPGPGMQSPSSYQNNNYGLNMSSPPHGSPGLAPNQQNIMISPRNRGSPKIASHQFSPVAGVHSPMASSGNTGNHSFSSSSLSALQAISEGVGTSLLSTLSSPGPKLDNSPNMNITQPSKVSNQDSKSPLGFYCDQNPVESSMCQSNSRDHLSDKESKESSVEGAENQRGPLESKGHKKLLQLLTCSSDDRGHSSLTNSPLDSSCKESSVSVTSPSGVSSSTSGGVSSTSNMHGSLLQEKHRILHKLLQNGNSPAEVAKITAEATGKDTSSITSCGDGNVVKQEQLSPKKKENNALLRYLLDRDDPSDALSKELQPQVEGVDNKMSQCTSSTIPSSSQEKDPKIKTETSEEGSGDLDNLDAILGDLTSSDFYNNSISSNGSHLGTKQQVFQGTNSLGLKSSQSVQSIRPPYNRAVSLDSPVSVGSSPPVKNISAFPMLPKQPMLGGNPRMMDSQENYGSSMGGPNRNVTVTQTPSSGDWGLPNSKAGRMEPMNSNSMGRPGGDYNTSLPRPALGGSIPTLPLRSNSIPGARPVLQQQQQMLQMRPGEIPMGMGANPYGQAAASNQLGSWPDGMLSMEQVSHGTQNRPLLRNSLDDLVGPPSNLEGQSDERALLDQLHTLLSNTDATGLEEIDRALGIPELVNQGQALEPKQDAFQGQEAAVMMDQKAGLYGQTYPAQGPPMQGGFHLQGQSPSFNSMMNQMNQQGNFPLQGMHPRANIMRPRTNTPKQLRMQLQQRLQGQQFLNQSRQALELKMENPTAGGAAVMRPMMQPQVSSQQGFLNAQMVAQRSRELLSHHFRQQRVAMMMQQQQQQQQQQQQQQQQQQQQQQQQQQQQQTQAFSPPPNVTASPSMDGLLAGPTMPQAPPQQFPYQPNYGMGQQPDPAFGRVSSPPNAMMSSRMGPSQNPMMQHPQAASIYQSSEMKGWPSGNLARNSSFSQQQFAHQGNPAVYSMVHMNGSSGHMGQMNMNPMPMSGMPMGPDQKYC
# [6] = target: T3, Sentrin-specific protease 8 (Homo sapiens, UniProt Q96LD8);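 also: luminescence read-out of SENP8 inhibition, dose-response confirmation following an ultra-high-throughput screen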
# T3 sequence (Q96LD8 whole entry): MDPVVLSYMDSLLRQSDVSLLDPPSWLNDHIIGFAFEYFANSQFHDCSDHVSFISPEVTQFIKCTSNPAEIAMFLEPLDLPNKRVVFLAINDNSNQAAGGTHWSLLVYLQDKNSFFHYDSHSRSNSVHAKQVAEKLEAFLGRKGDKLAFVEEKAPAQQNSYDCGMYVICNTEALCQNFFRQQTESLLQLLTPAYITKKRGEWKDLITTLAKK
# [7] = target: T4, Sentrin-specific protease 7 (Homo sapiens, UniProt Q9BQF6);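 also: Luminescence-based dose-response confirmation of ultra-high-throughput screening hits, measuring inhibition of SENP7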
# T4 sequence (Q9BQF6 whole entry): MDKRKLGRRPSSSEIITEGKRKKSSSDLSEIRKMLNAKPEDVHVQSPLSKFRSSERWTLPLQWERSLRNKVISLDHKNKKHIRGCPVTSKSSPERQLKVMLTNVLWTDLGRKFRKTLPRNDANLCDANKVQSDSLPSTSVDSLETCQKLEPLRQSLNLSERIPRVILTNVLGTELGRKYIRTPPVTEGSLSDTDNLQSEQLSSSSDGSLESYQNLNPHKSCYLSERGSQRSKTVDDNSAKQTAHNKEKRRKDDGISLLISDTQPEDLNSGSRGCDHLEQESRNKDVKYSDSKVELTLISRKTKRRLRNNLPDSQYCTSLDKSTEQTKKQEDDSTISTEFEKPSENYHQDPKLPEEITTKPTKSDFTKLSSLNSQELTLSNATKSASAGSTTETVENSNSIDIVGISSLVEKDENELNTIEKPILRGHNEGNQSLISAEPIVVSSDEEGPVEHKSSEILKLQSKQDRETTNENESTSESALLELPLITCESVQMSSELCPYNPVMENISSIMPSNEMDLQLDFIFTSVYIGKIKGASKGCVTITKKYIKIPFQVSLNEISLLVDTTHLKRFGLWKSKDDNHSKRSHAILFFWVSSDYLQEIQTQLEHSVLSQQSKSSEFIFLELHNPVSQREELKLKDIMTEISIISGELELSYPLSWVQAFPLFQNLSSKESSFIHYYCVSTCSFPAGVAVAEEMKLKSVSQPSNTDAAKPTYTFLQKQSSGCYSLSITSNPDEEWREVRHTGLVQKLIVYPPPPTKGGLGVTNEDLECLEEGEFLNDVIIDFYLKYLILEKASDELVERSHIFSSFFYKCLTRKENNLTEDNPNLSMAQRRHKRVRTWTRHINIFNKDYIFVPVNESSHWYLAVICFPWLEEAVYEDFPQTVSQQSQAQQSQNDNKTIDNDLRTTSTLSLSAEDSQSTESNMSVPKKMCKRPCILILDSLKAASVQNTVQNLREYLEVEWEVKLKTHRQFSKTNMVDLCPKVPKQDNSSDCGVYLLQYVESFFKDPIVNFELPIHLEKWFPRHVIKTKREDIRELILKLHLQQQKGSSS
# [8] = target: T5, Caspase-3 (Homo sapiens, UniProt P42574);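 also: Dose-response selectivity test against caspase-3 for candidate inhibitors of sentrin-specific proteases (SENPs)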
# T5 sequence (P42574 whole entry): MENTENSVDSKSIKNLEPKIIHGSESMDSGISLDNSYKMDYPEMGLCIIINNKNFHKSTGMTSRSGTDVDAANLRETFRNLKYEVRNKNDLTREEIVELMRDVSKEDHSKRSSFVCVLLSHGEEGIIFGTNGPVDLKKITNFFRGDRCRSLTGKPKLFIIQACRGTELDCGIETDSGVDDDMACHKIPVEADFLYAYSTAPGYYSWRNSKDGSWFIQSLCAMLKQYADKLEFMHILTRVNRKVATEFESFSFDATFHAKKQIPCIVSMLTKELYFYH
# [9] = target: T6, Sentrin-specific protease 6 (Homo sapiens, UniProt Q9GZR1);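 also: Luminescence-based dose-response confirmatory assay of SENP6 inhibition, following up an ultra-high-throughput screen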
# T6 sequence (Q9GZR1 whole entry): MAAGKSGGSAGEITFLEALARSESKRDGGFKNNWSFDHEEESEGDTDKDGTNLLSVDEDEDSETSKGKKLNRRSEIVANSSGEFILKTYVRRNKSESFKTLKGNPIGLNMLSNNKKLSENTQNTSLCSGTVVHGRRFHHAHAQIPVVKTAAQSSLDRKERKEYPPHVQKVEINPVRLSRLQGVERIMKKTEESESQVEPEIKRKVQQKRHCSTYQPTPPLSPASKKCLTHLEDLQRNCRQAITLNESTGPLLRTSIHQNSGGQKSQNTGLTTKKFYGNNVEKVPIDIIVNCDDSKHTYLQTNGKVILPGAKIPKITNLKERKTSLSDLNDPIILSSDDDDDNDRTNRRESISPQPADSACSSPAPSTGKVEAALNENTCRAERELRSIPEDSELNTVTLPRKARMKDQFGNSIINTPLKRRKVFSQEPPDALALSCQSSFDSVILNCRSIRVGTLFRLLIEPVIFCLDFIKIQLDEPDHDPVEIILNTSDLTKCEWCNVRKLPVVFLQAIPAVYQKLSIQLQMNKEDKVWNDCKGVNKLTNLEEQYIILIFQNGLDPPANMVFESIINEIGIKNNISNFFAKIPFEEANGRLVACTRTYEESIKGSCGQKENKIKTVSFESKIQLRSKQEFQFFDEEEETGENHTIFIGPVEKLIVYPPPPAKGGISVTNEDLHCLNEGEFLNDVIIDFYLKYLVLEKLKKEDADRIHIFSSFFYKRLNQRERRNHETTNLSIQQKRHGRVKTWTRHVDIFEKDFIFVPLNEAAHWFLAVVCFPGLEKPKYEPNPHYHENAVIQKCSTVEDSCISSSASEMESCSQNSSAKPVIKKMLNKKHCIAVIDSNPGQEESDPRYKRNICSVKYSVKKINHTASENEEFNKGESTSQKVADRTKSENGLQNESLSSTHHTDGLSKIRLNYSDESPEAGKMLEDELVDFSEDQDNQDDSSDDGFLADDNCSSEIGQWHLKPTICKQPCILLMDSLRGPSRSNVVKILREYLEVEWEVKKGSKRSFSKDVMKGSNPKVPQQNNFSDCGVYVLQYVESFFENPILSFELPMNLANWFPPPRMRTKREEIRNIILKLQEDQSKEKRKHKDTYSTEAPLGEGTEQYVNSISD
smiles,measurement,setting,value
COc1ccc(C(CNC(=O)c2oc3ccc(Cl)cc3c2C)N2CCCCC2)cc1 (stereo unspecified),EC50,[1],15 µM (active)
CCC1CCCCN1CCN1C(=O)C2C(C(=O)Nc3ccc(OC)cc3)C3C=CC2(O3)C1C(=O)NC1CCCCC1 (stereo unspecified),IC50,[2],> 100 µM (inactive)
same,EC50,[1],0.0947 µM (active)
OCc1ccccc1CNCc1ccccc1,EC50,[1],2.99 µM (active)
Cc1c(N)c(C(C)(C)C)cc(C(C)(C)C)c1[N+](=O)[O-],EC50,[1],4.22 µM (active)
COc1cccc(O)c1CN1CCCC(C(=O)c2sccc2C)C1 (stereo unspecified),EC50,[1],3.35 µM (active)
Cc1ccc(NC(=O)CN2CCc3ccccc3C2)cc1F,EC50,[1],6.68 µM (active)
C=CCn1c(=O)c2ccccc2n2c(SCc3nc(N)nc(Nc4ccccc4C)n3)nnc12,EC50,[3],> 79.4 µM (not active)
same,EC50,[4],> 79.4 µM (not active)
same,EC50,[5],> 79.4 µM (not active)
CCCCOc1ccc(C(=O)N/C(=C/C=C/c2ccccc2)C(=O)O)cc1,EC50,[3],> 79.4 µM (not active)
same,EC50,[4],> 79.4 µM (not active)
same,EC50,[5],> 79.4 µM (not active)
Cc1ccc(NS(=O)(=O)c2ccc(OCC(=O)NCc3cccnc3)cc2)cc1,EC50,[3],> 79.4 µM (not active)
same,EC50,[4],> 79.4 µM (not active)
same,EC50,[5],> 79.4 µM (not active)
Cc1ccc(C(=O)COC(=O)c2ccc(Cl)c(N)c2)s1,IC50,[6],23.1 µM (active)
same,IC50,[7],5.51 µM (active)
same,IC50,[8],15 µM (active)
same,IC50,[9],17.4 µM (active)
C=CCc1ccccc1OCC(O)CN1CCN(c2ccccc2OC)CC1 (stereo unspecified),EC50,[1],5.31 µM (active)
